As a reminder, the IC50 is the point on the concentration scale where inhibition reaches its midpoint. The Dmax is the greatest extent of degradation seen. As usually defined, the DC50 is the concentration at which degradation of the target reaches its halfway point.

The results in this text go back to patent publication US20250197387A1, “BCL-XL DEGRADERS AND USES THEREOF” (Kymera Therapeutics, Inc., priority 2021, published 2025).

Experiment [1] deals with MOLT-4 cells. As to the kind of experiment: CTG (CellTiter-Glo) cell viability assay, MOLT-4. The note with it: Homo sapiens, 3 day incubation, read-out: CTG Cell Viability Assay - MOLT-4 3 day: Average external-IC50. Type of experiment: cell-based. The procedure:
Compound-mediated viability effect on MOLT-4 and Caki-2 was quantitatively determined using the CellTiter-Glo® Luminescent Cell Viability Assay kit from Promega (Catalog number G7570) following manufacturer's recommended procedures. Briefly, MOLT-4 and Caki-2 cells were seeded into 384 well plates (Grenier Bio-One, Catalog number 781080) with a density of 10,000 cells per well. Compounds were then added to the assay plate with final top concentration of 10 μM and 1:3 dilution series with total of 9 doses. The final DMSO concentration is normalized to 0.2%. The assay plates were incubated at 37° C., for 3 days under 5% CO2. Then the assay plate was equilibrated at room temperature for 10 minutes. To determine cell viability, 30 uL CellTiter Glo reagent was added to each well and the assay plate was centrifuged at 1000 rpm for 30 second, incubated at room temperature for 10 min, and analyzed by detecting the luminescence using a multimode plate reader (EnVision 2105, PerkinElmer). The data was then analyzed by software Prism 7.0 from GraphPad and the dose response curves are fit using a three-parameter logistic equation to calculate IC50.
The letter codes for MOLT-4 IC50 include: A (<0.1 μM); B (0.1-1.0 μM); C (>1.0-3.0 μM); and D (>3.0 μM). The letter codes for Caki-2 IC50 include: A (<0.1 μM); B (0.1-1.0 μM); C (>1.0-10.0 μM); and D (>10.0 μM).
(In general: Cellular ATP, detected with luciferase, serves as a proxy for viable cell number.)

Experiment [2] addresses T1, BCL-XL (Homo sapiens, UniProt Q07817).
T1 construct: endogenous in cells; host or cells: MOLT-4
As to the kind of experiment: Bcl-xL ELISA degradation in MOLT-4 cells, 6 h. Type of experiment: cell-based. The following applies: for DC50: read-out: Bcl-xL ELISA in MOLT-4 degradation 6 h: Mean external-Abs DC50. How it is done: The letter codes for BCL-XL DC50 include: A (<0.01 μM); B (0.01-0.1 μM); C (>[…]); D (>0.5-1.0 μM); and E (>1.0 μM). The letter codes for Dmax % include A (>75%); B (50 to 75%); C (<50%).

Structures are written as SMILES. Where two headings read alike, the source gives them in different places.

T1 sequence (Q07817 whole entry): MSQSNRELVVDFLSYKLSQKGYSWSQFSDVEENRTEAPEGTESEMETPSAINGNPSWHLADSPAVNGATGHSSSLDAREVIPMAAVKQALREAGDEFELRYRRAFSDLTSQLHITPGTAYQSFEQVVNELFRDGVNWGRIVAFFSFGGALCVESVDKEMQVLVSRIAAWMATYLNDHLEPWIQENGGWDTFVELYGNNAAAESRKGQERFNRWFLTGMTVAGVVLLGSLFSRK

Turning to `Cc1ncsc1-c1ccc([C@H](C)NC(=O)[C@@H]2C[C@@H](O)CN2C(=O)[C@@H](NC(=O)CN(C)CCCS(=O)(=O)NC(=O)c2nc(N3CCc4cccc(C(=O)Nc5nc6ccccc6s5)c4C3)ccc2-c2cnn(CC3CCCCC3)c2C)C(C)(C)C)cc1` [I-220], the half-maximal inhibitory concentration (IC50) in experiment [1] (72 h) is < 100 nM. For the same compound, in experiment [2], the Dmax was > 75% and the DC50 is < 10 nM.
On to `Cc1ncsc1-c1ccc(CNC(=O)[C@@H]2C[C@H](O)CN2C(=O)[C@@H](NC(=O)C2(F)CC2)C(C)(C)C)c(OCCCCCS(=O)(=O)NC(=O)c2nc(N3CCc4cccc(C(=O)Nc5nc6ccccc6s5)c4C3)ccc2-c2cnn(CC34CC5CC(CC(C5)C3)C4)c2C)c1` [I-290], for which the concentration for half-maximal inhibition (IC50) in experiment [1] (MOLT-4, 72 h) fell in the range of 100 to 1000 nM. Besides, in experiment [2], the Dmax is 50 to 75% and the half-maximal degradation concentration (DC50) was 100 to 500 nM.
For `Cc1ncsc1-c1ccc(CNC(=O)[C@@H]2C[C@@H](O)CN2C(=O)[C@@H](NC(=O)C2(F)CC2)C(C)(C)C)c(OC2CCN(CCNC(=O)c3nc(N4CCc5cccc(C(=O)Nc6nc7ccccc7s6)c5C4)ccc3-c3cnn(CC4CCCCC4)c3C)CC2)c1` [I-215] the same measures were 100 to 1000 nM, 50 to 75% and 100 to 500 nM.
For `Cc1ncsc1-c1ccc([C@H](C)NC(=O)[C@@H]2C[C@@H](O)CN2C(=O)[C@@H](c2cc(N3CCN(c4ccc(S(=O)(=O)NC(=O)c5nc(N6CCc7cccc(C(=O)Nc8nc9ccccc9s8)c7C6)ccc5-c5cnn(CC6CCCCC6)c5C)cc4)CC3)no2)C(C)C)cc1` [I-214] the same measures were 100 to 1000 nM, > 75% and 10 to 100 nM.
For `Cc1ncsc1-c1ccc(CNC(=O)[C@@H]2C[C@@H](O)CN2C(=O)[C@@H](NC(=O)C2(F)CC2)C(C)(C)C)c(OCC2CN(C3CCC(NC(=O)c4nc(N5CCc6cccc(C(=O)Nc7nc8ccccc8s7)c6C5)ccc4-c4cnn(CC5CCCCC5)c4C)CC3)C2)c1` (some centres unmarked) [I-216] the same measures were 1000 to 3000 nM, < 50% and > 1000 nM.
As to `Cc1ncsc1-c1ccc(CNC(=O)[C@@H]2C[C@@H](O)CN2C(=O)[C@@H](NC(=O)C2(F)CC2)C(C)(C)C)c(CCCN2CCN(CC[C@H](CSc3ccccc3)Nc3ccc(S(=O)(=O)NC(=O)c4ccc(N5CCN(CC6=C(c7ccc(Cl)cc7)CCC(C)(C)C6)CC5)cc4)cc3S(=O)(=O)C(F)(F)F)CC2)c1` [I-211], the IC50 in experiment [1] (MOLT-4, 72 h) lay in the range of 100 to 1000 nM. Also, in experiment [2], the Dmax was < 50% and the DC50 is > 1000 nM.
For `Cc1ncsc1-c1ccc([C@H](C)NC(=O)[C@@H]2C[C@@H](O)CN2C(=O)[C@@H](NC(=O)CCCCCCCOc2nc(N3CCc4cccc(C(=O)Nc5nc6ccccc6s5)c4C3)ccc2-c2cnn(CC3CCCCC3)c2C)C(C)(C)C)cc1` [I-218], the IC50 in experiment [1] (MOLT-4, 72 h) was > 3000 nM. For the same compound, the maximal degradation (Dmax) in experiment [2] was < 50%.
In the case of `Cc1ncsc1-c1ccc([C@H](C)NC(=O)[C@@H]2C[C@@H](O)CN2C(=O)[C@@H](c2cc(OCC3CCN(CCNC(=O)c4nc(N5CCc6cccc(C(=O)Nc7nc8ccccc8s7)c6C5)ccc4-c4cnn(CC5CCCCC5)c4C)CC3)no2)C(C)C)cc1` [I-289], the IC50 in experiment [1] (MOLT-4, 72 h) lay in the range of 100 to 1000 nM. In experiment [2], the Dmax fell in the range of 50 to 75% and the DC50 was 10 to 100 nM.
Consider `Cc1ncsc1-c1ccc(CNC(=O)[C@@H]2C[C@@H](O)CN2C(=O)[C@@H](NC(=O)C2(F)CC2)C(C)(C)C)c(OCCc2ccc(S(=O)(=O)NC(=O)c3nc(N4CCc5cccc(C(=O)Nc6nc7ccccc7s6)c5C4)ccc3-c3cnn(CC4CCCCC4)c3C)cc2)c1` [I-219], for which, in experiment [1] (MOLT-4, 72 h), the 50% inhibitory concentration (IC50) lay within 100 to 1000 nM. In experiment [2], the greatest degradation seen (Dmax) is > 75% and the 50% degradation concentration (DC50) fell in the range of 10 to 100 nM.
Taken in the same sequence, the figures for `Cc1ncsc1-c1ccc([C@H](C)NC(=O)[C@@H]2C[C@@H](O)CN2C(=O)[C@@H](NC(=O)CCCCN(C)CCCCNC(=O)c2nc(N3CCc4cccc(C(=O)Nc5nc6ccccc6s5)c4C3)ccc2-c2cnn(CC3CCCCC3)c2C)C(C)(C)C)cc1` [I-221] were > 3000 nM, < 50% and > 1000 nM.
`Cc1ncsc1-c1ccc([C@H](C)NC(=O)[C@@H]2C[C@@H](O)CN2C(=O)[C@@H](c2cc(OC3CCN([C@H]4CC[C@H](NC(=O)c5nc(N6CCc7cccc(C(=O)Nc8nc9ccccc9s8)c7C6)ccc5-c5cnn(CC6CCCCC6)c5C)CC4)CC3)no2)C(C)C)cc1` [I-313]: in experiment [1] (MOLT-4, 72 h), the IC50 lay in the range of 1000 to 3000 nM. Also, in experiment [2], the Dmax is < 50% and the DC50 was > 1000 nM.
For the compound `Cc1cc(N(CCCC(=O)N(C)CCCCOCC(=O)N[C@H](C(=O)N2C[C@H](O)C[C@H]2C(=O)N[C@@H](C)c2ccc(-c3scnc3C)cc2)C(C)(C)C)c2ccc(-c3cnn(CC4CCCCC4)c3C)c(C(=O)O)n2)nnc1Nc1nc2ccccc2s1` [I-157], the half-maximal inhibitory concentration (IC50) in experiment [1] (MOLT-4, 72 h) was > 3000 nM.
As to `Cc1ncsc1-c1ccc([C@@H](CC(=O)N(C)CCCCCC(=O)N2CCN(CC[C@H](CSc3ccccc3)Nc3ccc(S(=O)(=O)NC(=O)c4ccc(N5CCN(CC6=C(c7ccc(Cl)cc7)CCC(C)(C)C6)CC5)cc4)cc3S(=O)(=O)C(F)(F)F)CC2)NC(=O)[C@@H]2C[C@@H](O)CN2C(=O)[C@@H](NC(=O)C2(F)CC2)C(C)(C)C)cc1` [I-159], in experiment [1] (MOLT-4, 72 h), the IC50 is 100 to 1000 nM.
For the compound `Cc1ncsc1-c1ccc([C@H](C)NC(=O)[C@@H]2C[C@H](O)CN2C(=O)[C@@H](NC(=O)CCCCCS(=O)(=O)NC(=O)c2nc(N3CCc4cccc(C(=O)Nc5nc6ccccc6s5)c4C3)ccc2-c2cnn(CC34CC5CC(CC(C5)C3)C4)c2C)C(C)(C)C)cc1` [I-286], the concentration for half-maximal inhibition (IC50) in experiment [1] (MOLT-4, 72 h) fell in the range of 100 to 1000 nM. In addition, in experiment [2], the Dmax was in the range of 50 to 75% and the DC50 lay in the range of 10 to 100 nM.
With `Cc1ncsc1-c1ccc([C@H](C)NC(=O)[C@@H]2C[C@@H](O)CN2C(=O)[C@@H](NC(=O)COC2CCN(CCNC(=O)c3nc(N4CCc5cccc(C(=O)Nc6nc7ccccc7s6)c5C4)ccc3-c3cnn(CC4CCCCC4)c3C)CC2)C(C)(C)C)cc1` [I-163], the IC50 in experiment [1] (MOLT-4, 72 h) was 100 to 1000 nM.
In the case of `Cc1ncsc1-c1ccc([C@H](C)NC(=O)[C@@H]2C[C@@H](O)CN2C(=O)[C@@H](NC(=O)CCCCCC(=O)N2CCN(CC[C@H](CSc3ccccc3)Nc3ccc(S(=O)(=O)NC(=O)c4cccc(N5CCc6cccc(C(=O)Nc7nc8ccccc8s7)c6C5)n4)cc3S(=O)(=O)C(F)(F)F)CC2)C(C)(C)C)cc1` [I-160], the IC50 in experiment [1] (MOLT-4, 72 h) was > 3000 nM.
On to `Cc1ncsc1-c1ccc(CNC(=O)[C@@H]2C[C@@H](O)CN2C(=O)[C@@H](NC(=O)C2(F)CC2)C(C)(C)C)c(OCC(C)N2CCN(CC[C@H](CSc3ccccc3)Nc3ccc(S(=O)(=O)NC(=O)c4ccc(N5CCN(CC6=C(c7ccc(Cl)cc7)CCC(C)(C)C6)CC5)cc4)cc3S(=O)(=O)C(F)(F)F)CC2)c1` (some centres unmarked) [I-155], for which the IC50 in experiment [1] (MOLT-4, 72 h) was < 100 nM.
With `Cc1ncsc1-c1ccc([C@@H](C)NC(=O)[C@@H]2C[C@@H](O)CN2C(=O)[C@@H](NC(=O)CCCCCC(=O)N(C)CCCC2(Cn3ncc(-c4ccc(N5CCc6cccc(C(=O)Nc7nc8ccccc8s7)c6C5)nc4C(=O)O)c3C)CCCCC2)C(C)(C)C)cc1` [I-162], the IC50 in experiment [1] (MOLT-4, 72 h) lay within 100 to 1000 nM.
Turning to `Cc1ncsc1-c1ccc([C@H](CC(=O)N(C)CCCCCC(=O)N2CCN(CC[C@H](CSc3ccccc3)Nc3ccc(S(=O)(=O)NC(=O)c4ccc(N5CCN(CC6=C(c7ccc(Cl)cc7)CCC(C)(C)C6)CC5)cc4)cc3S(=O)(=O)C(F)(F)F)CC2)NC(=O)[C@@H]2C[C@@H](O)CN2C(=O)[C@@H](NC(=O)C2(F)CC2)C(C)(C)C)cc1` [I-147], the half-inhibitory concentration (IC50) in experiment [1] (MOLT-4, 72 h) lay within 1000 to 3000 nM.
For `Cc1ncsc1-c1ccc(CNC(=O)[C@@H]2C[C@@H](O)CN2C(=O)[C@@H](NC(=O)C2(F)CC2)C(C)(C)C)c(OCCCCC(=O)N2CCN(CCCC3(Cn4ncc(-c5ccc(N6CCc7cccc(C(=O)Nc8nc9ccccc9s8)c7C6)nc5C(=O)O)c4C)CCCCC3)CC2)c1` [I-169], the half-inhibitory concentration (IC50) in experiment [1] (MOLT-4, 72 h) was 100 to 1000 nM.
Consider `Cc1ncsc1-c1ccc([C@H](C)NC(=O)[C@@H]2C[C@@H](O)CN2C(=O)[C@@H](NC(=O)COCCN2CCC(NC(=O)c3nc(N4CCc5cccc(C(=O)Nc6nc7ccccc7s6)c5C4)ccc3-c3cnn(CC4CCCCC4)c3C)CC2)C(C)(C)C)cc1` [I-152], for which, in experiment [1] (MOLT-4, 72 h), the concentration for half-maximal inhibition (IC50) is 1000 to 3000 nM.
On to `Cc1ncsc1-c1ccc([C@H](C)NC(=O)[C@@H]2C[C@@H](O)CN2C(=O)C(c2cc(N3CC4(CCN(CCNC(=O)c5nc(N6CCc7cccc(C(=O)Nc8nc9ccccc9s8)c7C6)ccc5-c5cnn(CC6CCCCC6)c5C)CC4)C3)no2)C(C)C)cc1` (some centres unmarked) [I-165], for which the IC50 in experiment [1] (MOLT-4, 72 h) fell in the range of 100 to 1000 nM.
As for `Cc1ncsc1-c1ccc([C@H](C)NC(=O)[C@@H]2C[C@@H](O)CN2C(=O)[C@@H](NC(=O)C2(F)CC2)C(C)(C)C)c(OCCN2CCN(CC[C@H](CSc3ccccc3)Nc3ccc(S(=O)(=O)NC(=O)c4ccc(N5CCN(CC6=C(c7ccc(Cl)cc7)CCC(C)(C)C6)CC5)cc4)cc3S(=O)(=O)C(F)(F)F)CC2)c1` [I-154], the IC50 in experiment [1] (MOLT-4, 72 h) lay in the range of 1000 to 3000 nM.
Turning to `Cc1ncsc1-c1ccc([C@H](C)NC(=O)[C@@H]2C[C@@H](O)CN2C(=O)[C@@H](NC(=O)N2CC(CN3CCC(CNC(=O)c4nc(N5CCc6cccc(C(=O)Nc7nc8ccccc8s7)c6C5)ccc4-c4cnn(CC5CCCCC5)c4C)CC3)C2)C(C)(C)C)cc1` [I-153], the IC50 in experiment [1] (MOLT-4, 72 h) is 1000 to 3000 nM.
